{"source": "patent EP1200395B1", "about": "“UREA DERIVATIVES AS INHIBITORS OF CCR-3 RECEPTOR” (KIRIN BEER KABUSHIKI KAISHA, priority 1999, dated 2001)", "data": [{"target": "T1, CCR-3 (Homo sapiens, UniProt P51677)", "T1 sequence (P51677 1-355)": "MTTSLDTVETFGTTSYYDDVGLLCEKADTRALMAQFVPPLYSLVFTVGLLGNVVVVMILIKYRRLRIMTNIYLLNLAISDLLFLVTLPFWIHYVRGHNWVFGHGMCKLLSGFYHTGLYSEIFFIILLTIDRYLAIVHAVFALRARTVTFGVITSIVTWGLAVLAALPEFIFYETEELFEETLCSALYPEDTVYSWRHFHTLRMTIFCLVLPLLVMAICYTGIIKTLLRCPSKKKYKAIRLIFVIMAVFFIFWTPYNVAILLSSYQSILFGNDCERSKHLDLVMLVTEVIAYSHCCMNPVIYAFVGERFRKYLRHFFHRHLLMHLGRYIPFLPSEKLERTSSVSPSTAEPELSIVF", "assay": "Eotaxin-induced chemotaxis of CCR-3 transfectant cells (CCR3/U937)", "assay_type": "cell-based", "design": "expressed in transfected cells; host or cells: U937", "details": "10 µM test compound; eotaxin 1 x 10^-9 M; CCR3/U937 cells (Table 3a)", "protocol": "(§1) The inhibitory activity of the compounds against eotaxin-induced chemotaxis was determined by measuring the inhibition of migration of CCR-3 transfectant cells (CCR3/U937), using a minor modification of the method described by Ohashi, H. et al., Int Arch Allergy Immunol. […] The chemotaxis assay was performed in a 24-well culture plate. Human eotaxin suspended in assay medium was added to the wells at 1 x 10^-9 M along with test compounds at various concentrations. For a positive control, eotaxin was added to the wells without a test compound, and for a negative control, neither eotaxin nor a test compound was added to the wells. Chemotaxicell (Kurabo Co., Ltd.) having 5 micrometers pore size were inserted into each well and 100 micro liters of CCR-3 transfectant cells suspension were added to the top chamber. The plates were incubated at 37 °C for 1 hour. After incubation, migrated cells in lower wells were diluted and counted by particle size distribution analyzer (CDP-500, Sysmex Co., Ltd.).", "units": {"Chemotaxis Assay 10 µM (inhibition %)": "%"}, "values": [{"smiles": "O=C(O)CCCN(CCCNC(=O)Nc1ccc(Br)cc1)CCC(c1ccccc1)c1ccccc1", "note": "[Compound 76]", "Chemotaxis Assay 10 µM (inhibition %)": 44}, {"smiles": "CC(c1ccccc1)N(CCCNC(=O)Nc1ccc(Br)cc1)CCCC(=O)O", "note": "(centres unmarked) [Compound 77]", "Chemotaxis Assay 10 µM (inhibition %)": 76}, {"smiles": "O=C(O)CCCN(CCCNC(=O)Nc1ccc(Br)cc1)CCc1ccc(Cl)cc1", "note": "[Compound 79]", "Chemotaxis Assay 10 µM (inhibition %)": 78}, {"smiles": "O=C(O)CCCN(CCCNC(=O)Nc1ccccc1)CCc1ccc(Cl)cc1", "note": "[Compound 80]", "Chemotaxis Assay 10 µM (inhibition %)": 65}, {"smiles": "O=C(O)CCCN(CCCNC(=O)Nc1cccc(Cl)c1)C1CCCc2ccccc21", "note": "(centres unmarked) [Compound 82]", "Chemotaxis Assay 10 µM (inhibition %)": 100}, {"smiles": "Cc1cccc(NC(=O)NCCCN(CCCC(=O)O)C2CCCc3ccccc32)c1", "note": "(centres unmarked) [Compound 83]", "Chemotaxis Assay 10 µM (inhibition %)": 100}, {"smiles": "O=C(O)CCCN(CCCNC(=O)Nc1ccc(Cl)c(C(F)(F)F)c1)C1CCCc2ccccc21", "note": "(centres unmarked) [Compound 84]", "Chemotaxis Assay 10 µM (inhibition %)": 100}, {"smiles": "O=C(O)CCCN(CCCNC(=O)Nc1ccccc1-c1ccccc1)C1CCCc2ccccc21", "note": "(centres unmarked) [Compound 85]", "Chemotaxis Assay 10 µM (inhibition %)": 19}, {"smiles": "COc1ccc(NC(=O)NCCCN(CCCC(=O)O)C2CCCc3ccccc32)c(OC)c1", "note": "(centres unmarked) [Compound 86]", "Chemotaxis Assay 10 µM (inhibition %)": 37}, {"smiles": "O=C(O)CCCN(CCCNC(=O)Nc1ccccc1)C1CCCc2ccccc21", "note": "(centres unmarked) [Compound 87]", "Chemotaxis Assay 10 µM (inhibition %)": 97}, {"smiles": "COc1ccc(NC(=O)NCCCN(CCCC(=O)O)C2CCCc3ccccc32)cc1", "note": "(centres unmarked) [Compound 88]", "Chemotaxis Assay 10 µM (inhibition %)": 100}, {"smiles": "O=C(O)CCCN(CCCNC(=O)Nc1ccc(Oc2ccccc2)cc1)C1CCCc2ccccc21", "note": "(centres unmarked) [Compound 89]", "Chemotaxis Assay 10 µM (inhibition %)": 89}, {"smiles": "O=C(O)CCCN(CCCNC(=O)Nc1cccc2ccccc12)C1CCCc2ccccc21", "note": "(centres unmarked) [Compound 90]", "Chemotaxis Assay 10 µM (inhibition %)": 100}, {"smiles": "COC(=O)CCCN(CCCNC(=O)Nc1ccc(Br)cc1)C1CCc2ccccc21", "note": "(centres unmarked) [Compound 172, Methyl 4-[[3-(4-bromophenylureido)propyl](1-indanyl)amino]burylate]", "Chemotaxis Assay 10 µM (inhibition %)": 100}, {"smiles": "O=C(O)CCCN(CCCNC(=O)Nc1ccc(Br)cc1)C1CCc2ccccc21", "note": "(centres unmarked) [Compound 173, 4-[[3-(4-Bromopbenylureido)propyl](1-indanyl)amino]butanoic acid]", "Chemotaxis Assay 10 µM (inhibition %)": 100}, {"smiles": "COC(=O)CCCN(CCCNC(=O)Nc1ccc(Br)cc1)C1Cc2ccccc2C1", "note": "[Compound 174]", "Chemotaxis Assay 10 µM (inhibition %)": 100}, {"smiles": "O=C(O)CCCN(CCCNC(=O)Nc1ccc(Br)cc1)C1Cc2ccccc2C1", "note": "[Compound 175]", "Chemotaxis Assay 10 µM (inhibition %)": 100}, {"smiles": "COC(=O)CCCN(CCCNC(=O)Nc1ccc(Br)cc1)C1CCc2ccccc21", "note": "(centres unmarked) [Compound 176]", "Chemotaxis Assay 10 µM (inhibition %)": 75}, {"smiles": "O=C(O)CCCN(CCCNC(=O)Nc1ccc(Br)cc1)C1CCc2ccccc21", "note": "(centres unmarked) [Compound 177]", "Chemotaxis Assay 10 µM (inhibition %)": 89}, {"smiles": "COC(=O)CCCN(CCCNC(=O)Nc1ccc(Br)cc1)[C@@H]1CCc2ccccc21", "note": "[Compound 178, Methyl 4-[[3-(4-bromophenylureido)propyl][(1R)-1-indanyl]amino]butylate]", "Chemotaxis Assay 10 µM (inhibition %)": 100}, {"smiles": "COC(=O)CCCN(CCCNC(=O)Nc1ccc(Br)cc1)[C@@H]1CCCc2ccccc21", "note": "[Compound 180, Methyl 4-[[3-(4-bromophenylureido)propyl][(1R)-1,2,3,4-tetrahydro-1-naphthyl]amino]burylate]", "Chemotaxis Assay 10 µM (inhibition %)": 100}, {"smiles": "CCOC(=O)CCCN(CCCNC(=O)Nc1ccc(Br)cc1)C1CCCc2ccccc21", "note": "(centres unmarked) [Compound 184, Ethyl 4-[[3-(4-bromophenylureido)propyl](1,2,3,4-tetrahydro-1-naphthyl)amino]burylate]", "Chemotaxis Assay 10 µM (inhibition %)": 100}, {"smiles": "COC(=O)CCCN(CCCNC(=O)Nc1ccc(Cl)cc1)C1CCCc2ccccc21", "note": "(centres unmarked) [Compound 185]", "Chemotaxis Assay 10 µM (inhibition %)": 100}, {"smiles": "O=C(O)CN(CCCNC(=O)Nc1ccc(Br)cc1)C1CCCc2ccccc21", "note": "(centres unmarked) [Compound 186]", "Chemotaxis Assay 10 µM (inhibition %)": 69}, {"smiles": "COC(=O)CCCN(CCCNC(=O)Nc1ccc(F)cc1)C1CCCc2ccccc21", "note": "(centres unmarked) [Compound 187]", "Chemotaxis Assay 10 µM (inhibition %)": 100}, {"smiles": "O=C(O)CCCN(CCCNC(=O)Nc1ccc(F)cc1)C1CCCc2ccccc21", "note": "(centres unmarked) [Compound 188]", "Chemotaxis Assay 10 µM (inhibition %)": 100}, {"smiles": "COC(=O)CCCN(CCCNC(=O)Nc1ccccc1Br)C1CCCc2ccccc21", "note": "(centres unmarked) [Compound 189]", "Chemotaxis Assay 10 µM (inhibition %)": 94}, {"smiles": "O=C(O)CCCN(CCCNC(=O)Nc1ccccc1Br)C1CCCc2ccccc21", "note": "(centres unmarked) [Compound 190]", "Chemotaxis Assay 10 µM (inhibition %)": 90}, {"smiles": "CCN(CCCNC(=O)Nc1ccccc1Br)C1CCCc2ccccc21", "note": "(centres unmarked) [Compound 191]", "Chemotaxis Assay 10 µM (inhibition %)": 100}, {"smiles": "CCN(CCCNC(=O)Nc1ccccc1)C1CCCc2ccccc21", "note": "(centres unmarked) [Compound 192]", "Chemotaxis Assay 10 µM (inhibition %)": 100}, {"smiles": "COC(=O)CCCN(CCCNC(=O)Nc1ccccc1Br)C(C)(C)c1ccccc1", "note": "[Compound 194]", "Chemotaxis Assay 10 µM (inhibition %)": 100}, {"smiles": "CC(C)(c1ccccc1)N(CCCNC(=O)Nc1ccccc1Br)CCCC(=O)O", "note": "[Compound 195]", "Chemotaxis Assay 10 µM (inhibition %)": 100}, {"smiles": "COC(=O)CCCN(CCCNC(=O)Nc1cccc(Br)c1)C1CCCc2ccccc21", "note": "(centres unmarked) [Compound 198]", "Chemotaxis Assay 10 µM (inhibition %)": 100}, {"smiles": "O=C(O)CCCN(CCCNC(=O)Nc1cccc(Br)c1)C1CCCc2ccccc21", "note": "(centres unmarked) [Compound 199]", "Chemotaxis Assay 10 µM (inhibition %)": 100}, {"smiles": "COC(=O)CCCN(CCCNC(=O)Nc1ccc(Br)cc1C)C1CCCc2ccccc21", "note": "(centres unmarked) [Compound 200]", "Chemotaxis Assay 10 µM (inhibition %)": 100}, {"smiles": "Cc1cc(Br)ccc1NC(=O)NCCCN(CCCC(=O)O)C1CCCc2ccccc21", "note": "(centres unmarked) [Compound 201]", "Chemotaxis Assay 10 µM (inhibition %)": 100}, {"smiles": "CC(=O)OCCCCN(CCCNC(=O)Nc1ccc(Br)cc1)C1CCCc2ccccc21", "note": "(centres unmarked) [Compound 202]", "Chemotaxis Assay 10 µM (inhibition %)": 100}, {"smiles": "O=C(NCCCN(CCCCCO)C1CCCc2ccccc21)Nc1ccc(Br)cc1", "note": "(centres unmarked) [Compound 205]", "Chemotaxis Assay 10 µM (inhibition %)": 97}, {"smiles": "COC(=O)CCCN(CCCNC(=O)Nc1ccc(Br)cc1)C(C)(C)Cc1ccccc1", "note": "[Compound 206]", "Chemotaxis Assay 10 µM (inhibition %)": 64}, {"smiles": "CC(C)(Cc1ccccc1)N(CCCNC(=O)Nc1ccc(Br)cc1)CCCC(=O)O", "note": "[Compound 207]", "Chemotaxis Assay 10 µM (inhibition %)": 50}, {"smiles": "CS(=O)(=O)NC(=O)CCCN(CCCNC(=O)Nc1ccc(Br)cc1)C1CCCc2ccccc21", "note": "(centres unmarked) [Compound 210]", "Chemotaxis Assay 10 µM (inhibition %)": 100}, {"smiles": "COC(=O)CCCCN(CCCNC(=O)Nc1ccc(Br)cc1)C1CCCc2ccccc21", "note": "(centres unmarked) [Compound 213]", "Chemotaxis Assay 10 µM (inhibition %)": 92}, {"smiles": "O=C(O)CCCCN(CCCNC(=O)Nc1ccc(Br)cc1)C1CCCc2ccccc21", "note": "(centres unmarked) [Compound 214]", "Chemotaxis Assay 10 µM (inhibition %)": 99}, {"smiles": "CC(=O)OCCCN(CCCNC(=O)Nc1ccc(Br)cc1)C1CCCc2ccccc21", "note": "(centres unmarked) [Compound 215]", "Chemotaxis Assay 10 µM (inhibition %)": 89}, {"smiles": "O=C(NCCCN(CCCO)C1CCCc2ccccc21)Nc1ccc(Br)cc1", "note": "(centres unmarked) [Compound 216]", "Chemotaxis Assay 10 µM (inhibition %)": 100}]}, {"target": "T1, CCR-3", "assay": "Eotaxin-induced chemotaxis of CCR-3 transfectant cells (CCR3/U937)", "assay_type": "cell-based", "design": "expressed in transfected cells; host or cells: U937", "details": "U-937; 10 µM test compound; eotaxin 1 x 10^-9 M; CCR3/U937 cells (Table 3a)", "protocol": "as §1", "units": {"inhibition at 10 µM": "%"}, "values": [{"smiles": "O=C(O)CCCN(CCCNC(=O)Nc1ccc(Cl)cc1)C1CCCc2ccccc21", "note": "(centres unmarked) [Compound 171, 4-[[3-(4-Chlorophenylureido)propyl](1,2,3,4-tetrahydro-1-naphthyl)amino]butanoic acid]", "inhibition at 10 µM": 100}, {"smiles": "O=C(O)CCCN(CCCNC(=O)Nc1ccc(Br)cc1)[C@@H]1CCc2ccccc21", "note": "[Compound 179, 4-[[3-(4-Bromophenylureido)propyl][(1R)-1-indanyl]amino]butanoic acid]", "inhibition at 10 µM": 100}, {"smiles": "O=C(O)CCCN(CCCNC(=O)Nc1ccc(Br)cc1)[C@@H]1CCCc2ccccc21", "note": "[Compound 181, 4-[[3-(4-Bromophenylureido)propyl][(1R)-1,2,3,4-tetrahydro-1-naphthyl]amino]butanoic acid]", "inhibition at 10 µM": 100}, {"smiles": "NC(=O)CCCN(CCCNC(=O)Nc1ccc(Br)cc1)C1CCCc2ccccc21", "note": "(centres unmarked) [Compound 193, 4-[[3-(4-Bromophenylureido)propyl](1,2,3,4-tetrahydro-1-naphthyl)amino]butanamide]", "inhibition at 10 µM": 100}, {"smiles": "O=C(CCCN(CCCNC(=O)Nc1ccc(Br)cc1)C1CCCc2ccccc21)NS(=O)(=O)c1ccccc1", "note": "(centres unmarked) [Compound 196, 3-[[3-(4-Bromophenylureido)propyl](1,2,3,4-tetrahydro-1-naphthyl)amino]-1-[(phenylsulfonyl)carbamoyl]propane]", "inhibition at 10 µM": 100}, {"smiles": "O=C(NCCCN(CCCCO)C1CCCc2ccccc21)Nc1ccc(Br)cc1", "note": "(centres unmarked) [Compound 203, 4-[[3-(4-Bromophenylureido)propyl](1,2,3,4-tetrahydro-1-naphthyl)amino]-1-butanol]", "inhibition at 10 µM": 100}, {"smiles": "O=C(NCCCN(CCCc1nnnn1C(c1ccccc1)(c1ccccc1)c1ccccc1)C1CCCc2ccccc21)Nc1ccc(Br)cc1", "note": "(centres unmarked) [Compound 217, 3-[[3-(4-bromophenylureido)propyl](1,2,3,4-tetrahydro-1-naphthyl)amino]-1-[1-(triphenylmethyl)tetrazol-5-yl]propane]", "inhibition at 10 µM": 87}, {"smiles": "O=C(NCCCN(CCCc1nnn[nH]1)C1CCCc2ccccc21)Nc1ccc(Br)cc1", "note": "(centres unmarked) [Compound 218, 3-[[3-(4-Bromophenylureido)propyl](1,2,3,4-tetrahydro-1-naphthyl)amino]-1-(1H-tetrazol-5-yl)propane]", "inhibition at 10 µM": 99}]}]}
